In patent US20220031611A1, “IMMUNOSUPPRESSIVE DOSAGE FORMS AND METHODS OF USE” (Gemini Laboratories, LLC, priority 2018, published 2022):

Assay: Storage stability: % assay of Tacrolimus
Type: physicochemical
Conditions: active pharmaceutical ingredient (API) lot, comparator
Text: The pharmaceutical formulations disclosed herein may comprise oral formulations having improved solubility and/or stability profiles. The formulations may be suitable for oral delivery, for example via a solution or suspension. The formulations orally administrated via a solution or suspension can be bioequivalent to formulations administered via oral capsules, or any other administration route. The formulations disclosed herein are stable under standard storage conditions or accelerated conditions. The total amount of impurities in the formulations may be not more than about 0.1 to 3%, and standard storage conditions may comprise a temperature of about 20 to 25° C. (i.e., room temperature) and no more than about 40% Relative Humidity (RH). In one embodiment, the formulations disclosed herein are stable at room temperature for 18 to 24 months or longer. The stability of a formulation according to the present disclosure can be determined, for example, by measuring the physical state of the formulation, including the viscosity and presence of any discoloration and chemical stability by measuring assay of API & related compound. Tables 4 and 5 present stability characteristics of the compositions provided in Examples 1 & 2 above. The following Tables 8-9 show purity of a Tacrolimus oral solution of 1 mg/ml as a percent assay, based on the batch descriptions in Table 7. […]

## C=CC[C@@H]1/C=C(\C)C[C@H](C)C[C@H](OC)[C@H]2O[C@@](O)(C(=O)C(=O)N3CCCC[C@H]3C(=O)O[C@H](/C(C)=C/[C@@H]3CC[C@@H](O)[C@H](OC)C3)[C@H](C)[C@@H](O)CC1=O)[C@H](C)C[C@@H]2OC [API_Lot # DMP (079)-38, Tacrolimus]
  % Assay: 97.1%
